How the values were obtained:
human cloned H1 receptor = molecular target: T1, human cloned H1 receptor (Homo sapiens, UniProt P35367); experiment: CHO-K1 H1R binding assay; settings: 3H-pyrilamine 2 nM, CHO-K1 membranes, 3 hours at 37° C.; read-out: CHOH1 K1
T1 construct: expressed in transfected cells; host or cells: CHO-K1
Description: CHO-K1 cells expressing the human cloned H1 receptor are grown to confluence in tissue culture dishes. Cells are harvested using D-PBS buffer (JRH Biosciences), kept at 4° C., centrifuging to pellet cells (4° C., 500 g, 10 min). The final cell pellet is homogenized and resuspended using Tris/sucrose buffer (20 mM Tris, 250 mM sucrose, pH 7.4 at 4° C.). Aliquots of the membrane preparation are stored at −70° C.
On the day of assay, the membrane preparation is thawed and centrifuged (TLA100.3 rotor, 4° C., 15 min, 23,000 rpm). The pellet is resuspended in Tris/sucrose buffer initially and then diluted further as necessary using assay buffer A (50 mM Na/KPO4, 2 mM MgCl2, 0.5% (w/v) BSA, pH 7.5).
For the binding assay, the membrane preparation, test compound and ^3H-pyrilamine (2 nM final) in buffer A with 1% (v/v) DMSO final are incubated in a 96-well polypropylene plate for 3 hours at 37° C. Non-specific binding is determined in the presence of 10 μM pyrilamine. A 96-well harvester (Packard) is used to harvest the 96-well plate onto a GF/B filter plate pre-treated with 0.1% (v/v) PEI. The plate is counted in a Packard Topcounter after adding Microscint 20 (Packard) scintillation fluid. The Ki for each compound at the histamine H1 receptor is then calculated from these counts.

[1] = molecular target: T2, human 5-lipoxygenase enzyme (Homo sapiens, UniProt P09917); experiment: Inhibition of LTB4 production in human whole blood; assay type: cell-based; settings: human whole blood, calcium ionophore A23187 50 μM, LTB4 by EIA; read-out: HWB IC50
T2 construct: endogenous in cells; host or cells: human whole blood (leukocytes) stimulated with A23187
T2 sequence (P09917 1-674): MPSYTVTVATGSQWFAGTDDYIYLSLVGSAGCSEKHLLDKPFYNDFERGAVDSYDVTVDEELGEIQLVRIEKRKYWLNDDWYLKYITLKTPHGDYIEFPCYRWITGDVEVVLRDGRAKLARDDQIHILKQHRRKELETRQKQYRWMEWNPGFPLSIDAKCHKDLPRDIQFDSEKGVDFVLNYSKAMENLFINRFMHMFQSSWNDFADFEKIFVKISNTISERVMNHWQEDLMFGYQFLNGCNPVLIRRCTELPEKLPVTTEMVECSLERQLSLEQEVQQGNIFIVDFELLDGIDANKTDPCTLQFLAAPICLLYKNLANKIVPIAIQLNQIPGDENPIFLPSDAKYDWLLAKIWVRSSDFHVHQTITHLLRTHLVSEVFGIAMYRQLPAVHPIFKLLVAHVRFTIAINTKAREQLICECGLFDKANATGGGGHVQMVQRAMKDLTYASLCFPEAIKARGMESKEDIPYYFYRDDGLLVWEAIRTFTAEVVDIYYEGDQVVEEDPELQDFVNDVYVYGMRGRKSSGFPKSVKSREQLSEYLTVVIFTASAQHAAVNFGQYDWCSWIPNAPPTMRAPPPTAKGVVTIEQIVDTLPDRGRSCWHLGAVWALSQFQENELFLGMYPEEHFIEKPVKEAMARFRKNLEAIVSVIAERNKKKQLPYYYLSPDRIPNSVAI
Description: This assay examines the ability of a compound to inhibit leukotriene B4 production from human blood stimulated with calcium ionophore. As this production of leukotriene B4 is mediated via the activation of the 5-lipoxygenase enzyme, this assay is predictive of a compound's ability to inhibit the human 5-lipoxygenase enzyme.
The procedure for the assay is as follows. Blood is drawn from normal human volunteers into tubes containing heparin. 1 ml of the heparinized blood is pipetted into a 1.5 ml polypropylene tube. To this sample is added either different concentrations of the test compound (5 μl) dissolved in DMSO or 5 μl of DMSO as a vehicle control. These samples are incubated in a water bath, at 37° C. for 15 min. 5 μl of the calcium ionophore A23187 (at a final concentration of 50 μM) is then added to each sample, which is vortexed and placed back in the water bath for 30 min. The samples are then centrifuged at 2500 rpm for 10 min. at 4° C. 50 μl of the supernatant is transferred into pre-cooled Eppendorf tubes containing 950 μl of enzyme immunoassay (EIA) buffer. A commercially available EIA kit (Cayman Chemical Co., Ann Arbor, Mich., USA) is used to subsequently measure the LTB4 production in the samples. The LTB4 levels produced in the vehicle control sample is then compared to those in which the test compound has been added. From this a percent inhibition of LTB4 production by each concentration of test compound is calculated and the IC50 for inhibition of LTB4 production for each test compound is determined.

5-lipoxygenase = experiment: 5-Lipoxygenase inhibitory activity in vivo; settings: guinea pig, oral, 2 mg/kg
Description: Male, Hartley guinea pigs are obtained from Charles River Labs at a body weight of 350-400 grams. Compounds are prepared at a volume of [1-2 mg/ml] in 1% methocellulose for oral dosing. Animals are separated into groups of five (5). Each assay includes a control group dosed with vehicle. Each group of animals is dosed with either vehicle or compound by oral gavage. Animals are allowed to rest for one, three, or six hours after dosing. Control animals are allowed to rest for three hours. At the appropriate times, the animals are anesthetized with Urethane at 1.5 g/kg, ip. Blood is drawn into a heparinized syringe via cardiac puncture. Blood (0.5 ml) is aliquoted into separately-labeled 1.5 ml eppendorf tubes. Each sample is loaded with 5 μl of [15 mM] Arachidonic Acid, and placed in a 37° C. water bath for five minutes. After five minutes, the blood is stimulated with 5 μl of [5 mM] A23187 (Calcium Ionophore) and retained in the water bath for an additional 30 minutes. After the thirty minutes, the blood samples are removed from the water bath and centrifuged at 14,000 rpm for 2 minutes. Plasma is diluted to EIA buffer and an EIA is performed following manufacturer instructions (Cayman Chemical Co., Ann Arbor, Mich., USA). The results (Table 3) show the percent inhibition of 5-lipoxygenase by selected compounds at multiple time points post oral dosing. 50% inhibition or greater is considered significant.

[2] = tested on: histamine-induced bronchoconstriction; experiment: Antihistaminergic activity in vivo (histamine-induced bronchoconstriction); settings: Cavia porcellus, guinea pig, oral, 2 mg/kg
Description: Male, Hartley guinea pigs are obtained from Charles River Labs at a body weight of 350 -400 grams. Inhibition of histamine activity is measured by the method of Konzett and Rössler (Naonyn-Schmiedebergs Arch. Exp. Path. Pharmakol. 195, 71-74 (1940). Anaethetized guinea pigs are subjected to artificial ventilation. The endotracheal pressure is recorded. Bronchoconstriction is induced by successive intravenous injections of histamine. The test compounds are administered orally in a 1% methocellulose suspension at set timepoints prior to the administration of histamine.
The results (Table 2) show the percent inhibition of histamine-induced bronchoconstriction by selected compounds at multiple time points post oral dosing. 50% inhibition or greater is considered significant.

T1 sequence (P35367 whole entry): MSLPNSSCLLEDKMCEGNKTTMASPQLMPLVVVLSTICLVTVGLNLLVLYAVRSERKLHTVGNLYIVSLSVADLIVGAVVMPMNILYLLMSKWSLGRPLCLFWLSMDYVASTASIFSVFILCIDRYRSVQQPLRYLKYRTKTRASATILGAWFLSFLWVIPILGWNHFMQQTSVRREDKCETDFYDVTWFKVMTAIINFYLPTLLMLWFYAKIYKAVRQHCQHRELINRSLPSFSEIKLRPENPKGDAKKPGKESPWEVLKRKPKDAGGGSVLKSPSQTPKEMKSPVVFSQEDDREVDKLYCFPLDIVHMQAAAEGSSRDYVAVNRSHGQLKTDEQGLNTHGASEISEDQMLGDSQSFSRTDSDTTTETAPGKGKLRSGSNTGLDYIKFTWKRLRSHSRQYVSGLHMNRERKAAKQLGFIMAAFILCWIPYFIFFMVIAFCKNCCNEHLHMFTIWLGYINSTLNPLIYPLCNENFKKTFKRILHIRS

Compound	Ki (human cloned H1 receptor) [nM]	IC50 [1] [nM]	% inhibition of 5-lipoxygenase (5-lipoxygenase; 6 hours) [%]	inhibition in vivo at 2 mg/kg ([2]; 3 hrs) [%]	inhibition in vivo at 2 mg/kg ([2]; 6 hrs) [%]	% inhibition of 5-lipoxygenase (5-lipoxygenase; 3 hours) [%]
NC(=O)N(O)CCOCCN1CCN([C@H](c2ccccc2)c2ccc(Cl)cc2)CC1 (racemic) [Compound 18, amino-N-[2-(2-{4-[(4-chlorophenyl)phenylmethyl]piperazinyl}ethoxy)ethyl]-N-hydroxyamide]	15	2100				
NC(=O)N(O)Cc1ccc(C#CCN2CCN([C@H](c3ccccc3)c3ccc(Cl)cc3)CC2)cc1 [Compound 3, N-{[4-(3-{4-[(1R) (4-chlorophenyl)phenylmethyl]piperazinyl}prop-1-ynyl)phenyl]methyl} amino-N-hydroxyamide]	260	1680				
NC(=O)N(O)Cc1cccc(OCCN2CCN([C@H](c3ccccc3)c3ccc(Cl)cc3)CC2)c1 [Compound 5, N-{[3-(2-{4-[(1R) (4-chlorophenyl)phenylmethyl]piperazinyl}ethoxy)phenyl]methyl} amino-N-hydroxyamide]	23	2040				
NC(=O)N(O)Cc1cccc(C#CCN2CCN([C@H](c3ccccc3)c3ccc(Cl)cc3)CC2)c1 [Compound 8, N-{[3-(3-{4-[(1R) (4-chlorophenyl)phenylmethyl]piperazinyl}prop-1-ynyl)phenyl]methyl} amino-N-hydroxyamide]	220	5770				
NC(=O)N(O)CC#CCN1CCN([C@H](c2ccccc2)c2ccc(Cl)cc2)CC1 [Compound 9, N-(4-{4-[(1R) (4-chlorophenyl)phenylmethyl]piperazinyl}but-2-ynyl) amino-N-hydroxyamide]	12	4220				
NC(=O)N(O)Cc1ccc(CCCN2CCN([C@H](c3ccccc3)c3ccc(Cl)cc3)CC2)cc1 [Compound 13, N-{[4-(3-{4-[(1R) (4-chlorophenyl)phenylmethyl]piperazinyl}propyl)phenyl]methyl} amino-N-hydroxyamide]	10	2440				
NC(=O)N(O)CC#CCN1CCN(C(c2ccc(F)cc2)c2ccc(F)cc2)CC1 [Compound 16, amino-N-(4-{4-[bis(4-fluorophenyl)methyl]piperazinyl}but-2-ynyl)-N-hydroxyamide]	94	2660				
NC(=O)N(O)Cc1ccc(CN2CCN([C@H](c3ccccc3)c3ccc(Cl)cc3)CC2)o1 [Compound 26, N-{[5-({4-[(1R) (4-chlorophenyl)phenylmethyl]piperazinyl}methyl)(2-furyl)]methyl} amino-N-hydroxyamide]	4	1710				
NC(=O)N(O)CCC#Cc1ccc(OCCN2CCN([C@H](c3ccccc3)c3ccc(Cl)cc3)CC2)c(C(=O)O)c1 [Compound 37, 2-(2-{4-[(1R)(4-chlorophenyl)phenyl-methyl]piperazinyl}ethoxy)-5-[4-(amino-hydroxycarbonylamino)but-1-ynyl]benzoic acid]	4	6590				
NC(=O)N(O)CCCCc1ccc(OCCN2CCN([C@H](c3ccccc3)c3ccc(Cl)cc3)CC2)c(C(=O)O)c1 [Compound 43, 2-(2-{4-[(1R)(4-chlorophenyl)phenylmethyl]piperazinyl}ethoxy)-5-[4-(aminohydroxycarbonylamino)butyl] benzoic acid]	2	2740				

These reach a lower IC50 [1]. Values come first.

Ki (human cloned H1 receptor) [nM]	IC50 [1] [nM]	Compound	% inhibition of 5-lipoxygenase (5-lipoxygenase; 6 hours) [%]	inhibition in vivo at 2 mg/kg ([2]; 3 hrs) [%]	inhibition in vivo at 2 mg/kg ([2]; 6 hrs) [%]	% inhibition of 5-lipoxygenase (5-lipoxygenase; 3 hours) [%]
8	1470	N-[2-(2-{4-[(1R)(4-chlorophenyl)phenylmethyl] piperazinyl}ethoxy)ethyl]amino-N-hydroxyamide [Compound 22]				
36	412	NC(=O)N(O)CCCCc1cccc(OCCN2CCN(C(c3ccccc3)c3ccccc3)CC2)c1 [Compound 30, amino-N-[4-(3-{2-[4-(diphenylmethyl)piperazinyl]ethoxy}phenyl)butyl]-N-hydroxyamide]				
133	313	NC(=O)N(O)CCC#C[C@@H]1CC[C@@H](CN2CCN([C@H](c3ccccc3)c3ccc(Cl)cc3)CC2)O1 [Compound 46, N-{4-[5-({4-[(1R)(4-chlorophenyl)phenylmethyl]piperazinyl}methyl)(2S,5S)oxolan-2-yl]but-3-ynyl}amino-N-hydroxyamide]				
	267	NC(=O)N(O)CCC#Cc1ccc(OCCN2CCN([C@H](c3ccccc3)c3ccc(Cl)cc3)CC2)cc1 [Compound 12, N-{4-[4-(2-{4-[(1R) (4-chlorophenyl)phenylmethyl]piperazinyl}ethoxy)phenyl]but-3-ynyl} amino-N-hydroxyamide]	80	62	66	
15	254	NC(=O)N(O)CCCCc1ccc(OCCN2CCN([C@H](c3ccccc3)c3ccc(Cl)cc3)CC2)cc1 [Compound 17, N-{4-[4-(2-{4-[(1R) (4-chlorophenyl)phenyl-methyl]piperazinyl}ethoxy)phenyl]butyl} amino-N-hydroxyamide]	94	66	73	70
7	253	CN(O)C(=O)NCc1cccc(OCCN2CCN([C@H](c3ccccc3)c3ccc(Cl)cc3)CC2)c1 [Compound 24, N-{[3-(2-{4-[(1R) (4-chlorophenyl)phenylmethyl]piperazinyl}ethoxy)phenyl]methyl} (methyl(hydroxyamino)) carboxamide]				
120	122	COC(=O)c1cc(CCCCN(O)C(N)=O)ccc1OCCN1CCN([C@H](c2ccccc2)c2ccc(Cl)cc2)CC1 [Compound 40, methyl2-(2-{4-[(1R) (4-chlorophenyl)phenyl-methyl]piperazinyl}ethoxy)-5-[4-(amino-hydroxycarbonylamino)butyl]benzoate]				
35	106	NC(=O)c1cc(CCCCN(O)C(N)=O)ccc1OCCN1CCN([C@H](c2ccccc2)c2ccc(Cl)cc2)CC1 [Compound 42, 2-(2-{4-[(1R)(4-chloro-phenyl)phenylmethyl]piperazinyl}ethoxy)-5-[4-(aminohydroxy-carbonylamino)butyl] benzamide]				
420	94	COC(=O)c1cc(C#CCCN(O)C(N)=O)ccc1OCCN1CCN([C@H](c2ccccc2)c2ccc(Cl)cc2)CC1 [Compound 36, methyl2-(2-{4-[(1R) (4-chlorophenyl)phenyl-methyl]piperazinyl}ethoxy)-5-[4-(amino-hydroxycarbonylamino)but-1-ynyl]benzoate]				

— patent publication US6451801B1, “Compounds and methods for treatment of asthma, allergy and inflammatory disorders” (UCB, S.A., priority 1999, dated 2002)
